System: healthy sheep
Test: Mucociliary clearance (99mTc-sulfur colloid) in healthy sheep after nebulized drug
Format: in vivo
Excerpt: Twenty-one adult female Florida native sheep (37–54 kg, Fair Meadow Sheep) were used in the present study, once or twice with a washout of at least 1 wk between experiments. Animals were restrained in an upright position in a specialized body harness in modified carts. The head of the animal was immobilized, and after local anesthesia of the nasal passage was induced with 2% lidocaine, the animals were nasally intubated with a standard endotracheal tube (7.5 mm diameter, Mallinckrodt, St. Louis, MO). A flexible bronchoscope was used to guide the tube and verify its position in the trachea. After intubation, the animals were allowed to rest for ∼20 min before administration of any agent.
Nebulized drug or placebo was given as an aerosol where 3 mL volume (compound in 10% EtOH:90% saline) was delivered at a tidal volume of 300 mL. To maximize central deposition in the airways, a dosimeter was used to deliver the compound. The nebulizer was connected to the dosimeter system consisting of a solenoid valve and a source of compressed air (20 psi). The output of the nebulizer was connected to a T-piece, with one end attached to a respirator (Harvard Apparatus Inc., Holliston, MA). The system was activated for 1 s at the onset of the inspiratory cycle of the respirator, which was set at an inspiratory/expiratory ratio of 1:1 and a rate of 20 breaths/min. To evaluate the effect of repeated dosing, AZD5634 was given twice daily for 4 days and MCC was measured 8 h after the 7th dose.
MCC rate was measured by means of aerosolized technetium-labeled sulfur colloid (^99mTC-SC) and nebulized via the same dosimeter system as for the drug administration. […] Aerosol ^99mTC-SC was generated using an Air Life nebulizer (CareFusion, Yorba Linda, CA). Approximately 20 mCi of ^99mTC-SC in a total of 2 mL of sterile saline was placed in the nebulizer. A tidal volume of 500 mL was used to deliver the ^99mTC-SC over 3 min.
Blood was kept on ice until centrifuged (4,000 g, 5 min, 4°C) and plasma (approximately 2 mL) was transferred to two Eppendorf tubes per sample and frozen at −20°C until analyzed. Sodium and potassium concentrations were analyzed at Mount Sinai Medical Center immediately after sampling and before centrifugation (IRMA TruPoint Analysis System). The plasma samples for analysis of drug concentration were shipped on dry ice to AstraZeneca R&D, Mölndal, Gothenburg and analyzed by means of LC-MSMS (001–04 Method for Blood Plasma Analysis).
Rat electrolyte data were analyzed by means of repeated-measures ANCOVA (SAS v.9).

## AZD5634
3 μg/kg bid for 4 days (7 doses), MCC 8 h after 7th dose
  MCC effect after repeated administration: effect magnitude was maintained compared with single-dose studies
12 μg/kg given 0, 4, 8, 12, 24 h before 99mTc
  duration of MCC effect: retained for 8 h, with approximately half left at 12 h and another half of the remaining effect gone by 24 h
dose-response 1–330 µg/kg, healthy sheep
  dose giving max effect on MCC: 0.12 mg/kg
dose-response, healthy sheep
  dose giving max efficacy on MCC: 0.12 mg/kg
Nebulized 1–330 µg/kg, given just before 99mTc
  effect on MCC: dose-dependent effect on MCC
Normal sheep in vivo
  peak effect on mucus clearance (augmentation): 30%

Reference: paper PMC9602792, “Preclinical evaluation of the epithelial sodium channel inhibitor AZD5634 and implications on human translation” (American Journal of Physiology - Lung Cellular and …, 2022)
